Laboratory results as given in ChEMBL document CHEMBL5370627, “Novel Indazole Compounds as TEAD Inhibitors for Treating Cancer” (ACS Med Chem Lett, 2023).

Assays:
[1] = biological target: Transcriptional enhancer factor TEF-3 (Homo sapiens, UniProt Q15561); assay: Inhibition of His-tagged TEAD4 (unknown origin) preincubated for 0.5 to 4 hrs followed by biotinylated lipid pocket probe addition and measured after 60 min by TR-FRET assay
[2] = biological target: Transcriptional enhancer factor TEF-5 (Homo sapiens, UniProt Q99594); assay: Inhibition of His-tagged TEAD3 (unknown origin) preincubated for 0.5 to 4 hrs followed by biotinylated lipid pocket probe addition and measured after 60 min by TR-FRET assay
Transcriptional enhancer factor TEF-5, sequence (Q99594 whole entry): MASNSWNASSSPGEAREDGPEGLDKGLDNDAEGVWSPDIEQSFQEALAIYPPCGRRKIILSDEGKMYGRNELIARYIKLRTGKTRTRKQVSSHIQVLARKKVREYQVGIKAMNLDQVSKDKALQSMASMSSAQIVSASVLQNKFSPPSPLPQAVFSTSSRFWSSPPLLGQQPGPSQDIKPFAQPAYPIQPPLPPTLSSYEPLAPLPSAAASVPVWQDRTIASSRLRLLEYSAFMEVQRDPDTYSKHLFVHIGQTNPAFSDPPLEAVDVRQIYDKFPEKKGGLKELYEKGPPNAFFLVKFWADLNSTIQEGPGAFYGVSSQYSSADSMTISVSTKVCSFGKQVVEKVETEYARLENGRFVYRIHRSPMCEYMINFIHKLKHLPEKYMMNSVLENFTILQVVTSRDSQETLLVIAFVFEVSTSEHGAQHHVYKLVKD

[3] = biological target: Transcriptional enhancer factor TEF-1 (Homo sapiens, UniProt P28347); assay: Inhibition of His-tagged TEAD1 (unknown origin) preincubated for 0.5 to 4 hrs followed by biotinylated lipid pocket probe addition and measured after 60 min by TR-FRET assay
Transcriptional enhancer factor TEF-1, sequence (P28347 whole entry): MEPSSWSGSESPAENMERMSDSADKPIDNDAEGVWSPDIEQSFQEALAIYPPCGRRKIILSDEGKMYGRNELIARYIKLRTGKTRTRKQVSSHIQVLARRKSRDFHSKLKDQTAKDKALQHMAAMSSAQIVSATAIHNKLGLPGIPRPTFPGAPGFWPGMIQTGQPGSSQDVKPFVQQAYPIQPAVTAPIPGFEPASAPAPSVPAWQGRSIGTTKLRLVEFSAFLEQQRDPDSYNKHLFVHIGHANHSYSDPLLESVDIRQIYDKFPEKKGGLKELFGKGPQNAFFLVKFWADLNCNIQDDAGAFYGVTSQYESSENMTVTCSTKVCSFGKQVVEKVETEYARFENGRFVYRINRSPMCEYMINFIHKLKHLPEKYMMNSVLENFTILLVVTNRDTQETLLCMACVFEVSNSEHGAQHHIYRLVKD

[4] = biological target: Transcriptional enhancer factor TEF-4 (Homo sapiens, UniProt Q15562); assay: Inhibition of His-tagged TEAD2 (unknown origin) preincubated for 0.5 to 4 hrs followed by biotinylated lipid pocket probe addition and measured after 60 min by TR-FRET assay
Transcriptional enhancer factor TEF-4, sequence (Q15562 whole entry): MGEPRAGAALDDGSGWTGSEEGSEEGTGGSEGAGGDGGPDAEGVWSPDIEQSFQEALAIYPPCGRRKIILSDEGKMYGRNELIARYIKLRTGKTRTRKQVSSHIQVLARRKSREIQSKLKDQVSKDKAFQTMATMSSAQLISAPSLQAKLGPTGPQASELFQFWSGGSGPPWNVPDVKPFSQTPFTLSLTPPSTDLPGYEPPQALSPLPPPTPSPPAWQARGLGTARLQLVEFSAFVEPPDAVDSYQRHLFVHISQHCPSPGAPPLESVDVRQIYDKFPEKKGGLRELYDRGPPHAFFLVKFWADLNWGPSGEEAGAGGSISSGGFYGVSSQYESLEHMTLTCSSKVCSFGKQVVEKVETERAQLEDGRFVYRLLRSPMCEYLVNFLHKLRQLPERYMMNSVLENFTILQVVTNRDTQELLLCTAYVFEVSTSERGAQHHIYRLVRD

Transcriptional enhancer factor TEF-3, sequence (Q15561 whole entry): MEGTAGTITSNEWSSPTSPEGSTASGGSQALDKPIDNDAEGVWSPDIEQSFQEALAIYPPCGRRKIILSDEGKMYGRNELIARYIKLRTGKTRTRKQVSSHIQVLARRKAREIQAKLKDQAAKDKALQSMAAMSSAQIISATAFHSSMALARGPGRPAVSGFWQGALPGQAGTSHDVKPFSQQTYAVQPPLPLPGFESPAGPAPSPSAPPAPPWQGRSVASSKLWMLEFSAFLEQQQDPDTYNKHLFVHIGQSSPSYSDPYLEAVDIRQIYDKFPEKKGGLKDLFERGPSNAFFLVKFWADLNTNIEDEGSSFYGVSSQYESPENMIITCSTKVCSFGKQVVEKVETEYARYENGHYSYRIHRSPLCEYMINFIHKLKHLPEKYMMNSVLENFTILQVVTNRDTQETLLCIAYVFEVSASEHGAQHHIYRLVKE

Compound | IC50 [1] [nM] | IC50 [2] [nM] | IC50 [3] [nM] | IC50 [4] [nM]
C#Cc1ccnc2c1c(C1CN(C(=O)C=C)C1)nn2-c1ccc(OC(F)(F)F)cc1 | 9 | 5 | 4 | 2
O=C(/C=C/CO)N1CC(c2nn(-c3ccc(OC(F)(F)F)cc3)c3nccc(Cl)c23)C1 | 3 |  | 8 | 
